Assay results taken from ChEMBL document CHEMBL3885881, “DrugMatrix”.

Organism: Rattus norvegicus
Test: DrugMatrix - Regimen: Daily Repeat
Assay type: toxicity, organism-based, Sprague-Dawley
Design: regimen Daily Repeat, gender Male, age 6-8 weeks
Conditions: in vivo, sc, route subcutaneous, […]; for ABSOLUTE BASOPHIL / ABSOLUTE EOSINOPHIL / ABSOLUTE LYMPHOCYTE / ABSOLUTE MONOCYTE / ABSOLUTE SEGMENTED NEUTROPHIL / BASOPHIL / EOSINOPHIL / ERYTHROCYTE COUNT / HEMATOCRIT / HEMOGLOBIN / LEUKOCYTE COUNT / LYMPHOCYTE / MEAN CORPUSCULAR HEMOGLOBIN / MEAN CORPUSCULAR HEMOGLOBIN CONCENTRATION / MEAN CORPUSCULAR VOLUME / MONOCYTE / NEUTROPHIL / NUCLEATED RED BLOOD CELLS / PLATELET COUNT: tissue Blood; for ALANINE AMINOTRANSFERASE / ALBUMIN / ALKALINE PHOSPHATASE / ASPARTATE AMINOTRANSFERASE / BLOOD UREA NITROGEN / CARBON DIOXIDE / CHLORIDE / CHOLESTEROL / CREATINE PHOSPHOKINASE / CREATININE / GLUCOSE / LACTATE DEHYDROGENASE / LIPASE / PHOSPHORUS / POTASSIUM / SODIUM / TOTAL BILIRUBIN / TOTAL PROTEIN / URIC ACID: tissue Plasma
[1] = 56 mg/kg, 120 h, dose level High, time 5 day
[2] = 72 h, dose 3.3 mg/Kg, dose level Low, time 3 day
[3] = 120 h, dose 3.3 mg/Kg, dose level Low, time 5 day

SMILES: C[C@]12CCC(=O)C=C1CC[C@@H]1[C@@H]2[C@@H](O)C[C@@]2(C)[C@H]1CC[C@]2(O)C(=O)CO [HYDROCORTISONE]
- ABSOLUTE BASOPHIL [1]: 0 CELLS/uL
- ABSOLUTE EOSINOPHIL [1]: 0 CELLS/uL
- ABSOLUTE LYMPHOCYTE [1]: 1058 CELLS/uL
- ABSOLUTE MONOCYTE [1]: 166.67 CELLS/uL
- ABSOLUTE SEGMENTED NEUTROPHIL [1]: 5575.33 CELLS/uL
- BASOPHIL [1]: 0%
- EOSINOPHIL [1]: 0%
- ERYTHROCYTE COUNT [1]: 6.58 x10E6/uL
- HEMATOCRIT [1]: 40.47%
- HEMOGLOBIN [1]: 15.5 G/DL
- LEUKOCYTE COUNT [1]: 6.8 x10E3/uL
- LYMPHOCYTE [1]: 17%
- MEAN CORPUSCULAR HEMOGLOBIN [1]: 23.6 pg
- MEAN CORPUSCULAR HEMOGLOBIN CONCENTRATION [1]: 38.3 G/DL
- MEAN CORPUSCULAR VOLUME [1]: 61.63 fL
- MONOCYTE [1]: 2.33%
- NEUTROPHIL [1]: 80.67%
- NUCLEATED RED BLOOD CELLS [1]: 0 /100WBC
- PLATELET COUNT [1]: 1367.33 x10E3/uL
- ALANINE AMINOTRANSFERASE [1]: 309 u/L
- ALBUMIN [1]: 4.87 G/DL
- ALKALINE PHOSPHATASE [1]: 497.33 u/L
- ASPARTATE AMINOTRANSFERASE [1]: 475.33 u/L
- BLOOD UREA NITROGEN [1]: 23 mg/dL
- CARBON DIOXIDE [1]: 31.33 mmol/L
- CHLORIDE [1]: 95 MEQ/L
- CHOLESTEROL [1]: 140 mg/dL
- CREATINE PHOSPHOKINASE [1]: 224.67 u/L
- CREATININE [1]: 0.49 mg/dL
- GLUCOSE [1]: 479 mg/dL
- LACTATE DEHYDROGENASE [1]: 701 u/L
- LIPASE [1]: 15 u/L
- PHOSPHORUS [1]: 12.63 mg/dL
- POTASSIUM [1]: 5.83 MEQ/L
- SODIUM [1]: 145.23 MEQ/L
- TOTAL BILIRUBIN [1]: 0.17 mg/dL
- TOTAL PROTEIN [1]: 6.73 G/DL
- URIC ACID [1]: 1.57 mg/dL
- ABSOLUTE BASOPHIL [2]: 0 CELLS/uL
- ABSOLUTE EOSINOPHIL [2]: 0 CELLS/uL
- ABSOLUTE LYMPHOCYTE [2]: 9134.67 CELLS/uL
- ABSOLUTE MONOCYTE [2]: 0 CELLS/uL
- ABSOLUTE SEGMENTED NEUTROPHIL [2]: 898.67 CELLS/uL
- BASOPHIL [2]: 0%
- EOSINOPHIL [2]: 0%
- ERYTHROCYTE COUNT [2]: 5.23 x10E6/uL
- HEMATOCRIT [2]: 33.47%
- HEMOGLOBIN [2]: 13.37 G/DL
- LEUKOCYTE COUNT [2]: 10.03 x10E3/uL
- LYMPHOCYTE [2]: 90.67%
- MEAN CORPUSCULAR HEMOGLOBIN [2]: 25.6 pg
- MEAN CORPUSCULAR HEMOGLOBIN CONCENTRATION [2]: 39.93 G/DL
- MEAN CORPUSCULAR VOLUME [2]: 64.07 fL
- MONOCYTE [2]: 0%
- NEUTROPHIL [2]: 9.33%
- NUCLEATED RED BLOOD CELLS [2]: 0 /100WBC
- PLATELET COUNT [2]: 1185.33 x10E3/uL
- ALANINE AMINOTRANSFERASE [2]: 42.33 u/L
- ALBUMIN [2]: 4.73 G/DL
- ALKALINE PHOSPHATASE [2]: 429 u/L
- ASPARTATE AMINOTRANSFERASE [2]: 94.33 u/L
- BLOOD UREA NITROGEN [2]: 15.67 mg/dL
- CARBON DIOXIDE [2]: 32.67 mmol/L
- CHLORIDE [2]: 101.33 MEQ/L
- CHOLESTEROL [2]: 78.67 mg/dL
- CREATINE PHOSPHOKINASE [2]: 185 u/L
- CREATININE [2]: 0.23 mg/dL
- GLUCOSE [2]: 137.67 mg/dL
- LACTATE DEHYDROGENASE [2]: 131.33 u/L
- LIPASE [2]: 9.67 u/L
- PHOSPHORUS [2]: 12.3 mg/dL
- POTASSIUM [2]: 6.34 MEQ/L
- SODIUM [2]: 150.8 MEQ/L
- TOTAL BILIRUBIN [2]: 0.3 mg/dL
- TOTAL PROTEIN [2]: 6.73 G/DL
- URIC ACID [2]: 0.83 mg/dL
- ABSOLUTE BASOPHIL [3]: 0 CELLS/uL
- ABSOLUTE EOSINOPHIL [3]: 115 CELLS/uL
- ABSOLUTE LYMPHOCYTE [3]: 10473.33 CELLS/uL
- ABSOLUTE MONOCYTE [3]: 38.33 CELLS/uL
- ABSOLUTE SEGMENTED NEUTROPHIL [3]: 1440 CELLS/uL
- BASOPHIL [3]: 0%
- EOSINOPHIL [3]: 1%
- ERYTHROCYTE COUNT [3]: 5.54 x10E6/uL
- HEMATOCRIT [3]: 36.47%
- HEMOGLOBIN [3]: 14.6 G/DL
- LEUKOCYTE COUNT [3]: 12.07 x10E3/uL
- LYMPHOCYTE [3]: 87%
- MEAN CORPUSCULAR HEMOGLOBIN [3]: 26.37 pg
- MEAN CORPUSCULAR HEMOGLOBIN CONCENTRATION [3]: 40.07 G/DL
- MEAN CORPUSCULAR VOLUME [3]: 65.8 fL
- MONOCYTE [3]: 0.33%
- NEUTROPHIL [3]: 11.67%
- NUCLEATED RED BLOOD CELLS [3]: 0 /100WBC
- PLATELET COUNT [3]: 1230 x10E3/uL
- ALANINE AMINOTRANSFERASE [3]: 51.67 u/L
- ALBUMIN [3]: 4.73 G/DL
- ALKALINE PHOSPHATASE [3]: 334.67 u/L
- ASPARTATE AMINOTRANSFERASE [3]: 73 u/L
- BLOOD UREA NITROGEN [3]: 15.33 mg/dL
- CARBON DIOXIDE [3]: 31.33 mmol/L
- CHLORIDE [3]: 104 MEQ/L
- CHOLESTEROL [3]: 66 mg/dL
- CREATINE PHOSPHOKINASE [3]: 123.33 u/L
- CREATININE [3]: 0.18 mg/dL
- GLUCOSE [3]: 160 mg/dL
- LACTATE DEHYDROGENASE [3]: 97.33 u/L
- LIPASE [3]: 9.33 u/L
- PHOSPHORUS [3]: 14.23 mg/dL
- POTASSIUM [3]: 6.63 MEQ/L
- SODIUM [3]: 149.93 MEQ/L
- TOTAL BILIRUBIN [3]: 0.2 mg/dL
- TOTAL PROTEIN [3]: 6.63 G/DL
- URIC ACID [3]: 1.7 mg/dL
